Earlier results on one compound are cited in patent US6872523B1, “Materials and methods for molecular detection of clinically relevant pathogenic fungal species” (The Board of Regents of the University of Nebraska, priority 2000, dated 2005).

In data set [1] the test system is A. niger. The settings on record: low end of the reported MIC range.
The subject of data set [2] is A. fumigatus. The settings on record: low end of the reported MIC range.
Data set [3] relates to A. flavus. To be noted: high end of the reported MIC range.
Data set [4] relates to A. nidulans. The settings on record: high end of the reported MIC range.
In data set [5] the test system is A. terreus isolates. To be noted: share of A. terreus isolates resistant to AmB (refs 10, 17, 22).

Take `C[C@@H]1[C@H](O)[C@@H](C)/C=C/C=C/C=C/C=C/C=C/C=C/C=C/[C@H](O[C@@H]2O[C@H](C)[C@@H](O)[C@H](N)[C@@H]2O)C[C@@H]2O[C@](O)(C[C@@H](O)C[C@@H](O)[C@H](O)CC[C@@H](O)C[C@@H](O)CC(=O)O[C@H]1C)C[C@H](O)[C@H]2C(=O)O` [AmB, amphotericin B]: the “AmB MIC” value in data set [1] was 0.5 µg/mL; in data set [2], 0.5 µg/mL; in data set [3], 16 µg/mL; in data set [4], 16 µg/mL. In data set [5], the “isolates reported as resistant” value is recorded as “over 95%”.
